What was measured:
NOMO1 [1] = test: cell viability relative to DMSO control; higher = less cytotoxic; settings: HPLM + 10% dialyzed FBS, 48 h
Method in brief: (§1)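 NOMO1, SEM and P12-Ichikawa leukemia cells spent at least four passages adapting to each medium before use. They were seeded at 500 cells/well (NOMO1, SEM) or 1000 cells/well (P12-Ichikawa) in 5 μl in 1536-well plates and pin-dosed with library compounds in DMSO at 11 threefold steps from 47 μM down to 0.79 nM. After 48 h at 37°C, CellTiter-Glo One luminescence was read. Viability is reported as a percentage of the DMSO wells on each plate, with cell-free wells as background.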

P12-Ichikawa [2] = test: as above; settings: RPMI 5 mM glucose + 10% FBS, 48 h
Method in brief: as §1

SEM cells [3] = test: as above; settings: 48 h
Method in brief: as §1

NOMO1 [4] = test: AUC of viability dose-response curve (% viability x log10 dose units); higher = less sensitive; settings: 48 h
Method in brief: (§2)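 Over 48 h at 37°C, leukemia cells in 1536-well plates (500 or 1000 cells/well), adapted to each medium, received library compounds in DMSO at 11 threefold doses from 47 μM to 0.79 nM. CellTiter-Glo One luminescence, normalised per plate to DMSO and cell-free wells, was fitted by a four-parameter log-logistic function of log10 dose. The area under the curve was then integrated by trapezoidal rule, after scaling curves above full viability and removing those that failed quality control.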

SEM cells [5] = test: as above; settings: 48 h
Method in brief: as §2

P12-Ichikawa [6] = test: as above; settings: 48 h
Method in brief: as §2

[7] = HPLM + 10% dialyzed FBS, 0.000781 µM
[8] = HPLM + 10% dialyzed FBS, 0.00234 µM
[9] = HPLM + 10% dialyzed FBS, 0.00702 µM
[10] = HPLM + 10% dialyzed FBS, 0.0211 µM
[11] = HPLM + 10% dialyzed FBS, 0.0632 µM
[12] = HPLM + 10% dialyzed FBS, 0.19 µM
[13] = HPLM + 10% dialyzed FBS, 0.569 µM
[14] = HPLM + 10% dialyzed FBS, 1.71 µM
[15] = HPLM + 10% dialyzed FBS, 5.12 µM
[16] = HPLM + 10% dialyzed FBS, 15.4 µM
[17] = HPLM + 10% dialyzed FBS, 46.1 µM
[18] = RPMI 5 mM glucose + 10% FBS, 0.000781 µM
[19] = RPMI 5 mM glucose + 10% FBS, 0.00234 µM
[20] = RPMI 5 mM glucose + 10% FBS, 0.00702 µM
[21] = RPMI 5 mM glucose + 10% FBS, 0.0211 µM
[22] = RPMI 5 mM glucose + 10% FBS, 0.0632 µM
[23] = RPMI 5 mM glucose + 10% FBS, 0.19 µM
[24] = RPMI 5 mM glucose + 10% FBS, 0.569 µM
[25] = RPMI 5 mM glucose + 10% FBS, 1.71 µM
[26] = RPMI 5 mM glucose + 10% FBS, 5.12 µM
[27] = RPMI 5 mM glucose + 10% FBS, 15.4 µM
[28] = RPMI 5 mM glucose + 10% FBS, 46.1 µM
[29] = RPMI 5 mM glucose + 10% dialyzed FBS

Which results are given for `NCC(=O)Nc1ccc(-n2nc(C(F)(F)F)cc2-c2ccc3c(ccc4ccccc43)c2)cc1`?
cell viability (NOMO1 [1]; 0.000781 µM): 129%; cell viability (NOMO1 [1]; 0.00234 µM): 123%; cell viability (NOMO1 [1]; 0.00702 µM): 123%; cell viability (NOMO1 [1]; 0.0211 µM): 137%; cell viability (NOMO1 [1]; 0.0632 µM): 134%; cell viability (NOMO1 [1]; 0.19 µM): 124%; cell viability (NOMO1 [1]; 0.569 µM): 138%; cell viability (NOMO1 [1]; 1.71 µM): 147%; cell viability (NOMO1 [1]; 5.12 µM): 131%; cell viability (NOMO1 [1]; 15.4 µM): 108%; cell viability (NOMO1 [1]; 46.1 µM): 78.1%; cell viability (P12-Ichikawa [2]; 0.000781 µM): 24.1%; cell viability (P12-Ichikawa [2]; 0.00234 µM): 123%; cell viability (P12-Ichikawa [2]; 0.00702 µM): 137%; cell viability (P12-Ichikawa [2]; 0.0211 µM): 133%; cell viability (P12-Ichikawa [2]; 0.0632 µM): 125%; cell viability (P12-Ichikawa [2]; 0.19 µM): 120%; cell viability (P12-Ichikawa [2]; 0.569 µM): 105%; cell viability (P12-Ichikawa [2]; 1.71 µM): 106%; cell viability (P12-Ichikawa [2]; 5.12 µM): 92.1%; cell viability (P12-Ichikawa [2]; 15.4 µM): 79.2%; cell viability (P12-Ichikawa [2]; 46.1 µM): 79%; cell viability (SEM cells [3]; [7]): 109%; cell viability (SEM cells [3]; [8]): 136%; cell viability (SEM cells [3]; [9]): 117%; cell viability (SEM cells [3]; [10]): 121%; cell viability (SEM cells [3]; [11]): 120%; cell viability (SEM cells [3]; [12]): 112%; cell viability (SEM cells [3]; [13]): 129%; cell viability (SEM cells [3]; [14]): 121%; cell viability (SEM cells [3]; [15]): 113%; cell viability (SEM cells [3]; [16]): 99.1%; cell viability (SEM cells [3]; [17]): 95%; cell viability (SEM cells [3]; [18]): 87.7%; cell viability (SEM cells [3]; [19]): 100%; cell viability (SEM cells [3]; [20]): 112%; cell viability (SEM cells [3]; [21]): 102%; cell viability (SEM cells [3]; [22]): 116%; cell viability (SEM cells [3]; [23]): 114%; cell viability (SEM cells [3]; [24]): 101%; cell viability (SEM cells [3]; [25]): 107%; cell viability (SEM cells [3]; [26]): 98.3%; cell viability (SEM cells [3]; [27]): 84.8%; cell viability (SEM cells [3]; [28]): 72.6%; cell viability (SEM cells [3]; RPMI 5 mM glucose + 10% dialyzed FBS, 0.000781 µM): 119%; cell viability (SEM cells [3]; RPMI 5 mM glucose + 10% dialyzed FBS, 0.00234 µM): 138%; cell viability (SEM cells [3]; RPMI 5 mM glucose + 10% dialyzed FBS, 0.00702 µM): 119%; cell viability (SEM cells [3]; RPMI 5 mM glucose + 10% dialyzed FBS, 0.0211 µM): 124%; cell viability (SEM cells [3]; RPMI 5 mM glucose + 10% dialyzed FBS, 0.0632 µM): 120%; cell viability (SEM cells [3]; RPMI 5 mM glucose + 10% dialyzed FBS, 0.19 µM): 114%; cell viability (SEM cells [3]; RPMI 5 mM glucose + 10% dialyzed FBS, 0.569 µM): 128%; cell viability (SEM cells [3]; RPMI 5 mM glucose + 10% dialyzed FBS, 1.71 µM): 132%; cell viability (SEM cells [3]; RPMI 5 mM glucose + 10% dialyzed FBS, 5.12 µM): 100%; cell viability (SEM cells [3]; RPMI 5 mM glucose + 10% dialyzed FBS, 15.4 µM): 51.4%; cell viability (SEM cells [3]; RPMI 5 mM glucose + 10% dialyzed FBS, 46.1 µM): 45.1%; AUC of viability dose-response curve (NOMO1 [4]; HPLM + 10% dialyzed FBS): 458; AUC of viability dose-response curve (NOMO1 [4]; RPMI 5 mM glucose + 10% FBS): 462; AUC of viability dose-response curve (NOMO1 [4]; [29]): 447; AUC of viability dose-response curve (SEM cells [5]; HPLM + 10% dialyzed FBS): 460; AUC of viability dose-response curve (SEM cells [5]; RPMI 5 mM glucose + 10% FBS): 457; AUC of viability dose-response curve (SEM cells [5]; [29]): 424

With `Nc1cc(c(cc1S(=O)(N)=O)S(N)(=O)=O)C(/Cl)=C(/Cl)Cl` as the molecule, how does the cell viability (SEM cells [3]; [7]) read?
The cell viability was 110%.

And the cell viability (SEM cells [3]; [8])?
The cell viability was 124%.

What about the cell viability (SEM cells [3]; [9]) of the same molecule?
Its cell viability is 140%.

What about the cell viability (SEM cells [3]; [10]) of the same molecule?
The cell viability was 124%.

And the cell viability (SEM cells [3]; [11])?
The cell viability was 128%.

What about the cell viability (SEM cells [3]; [12]) of the same molecule?
Its cell viability is 120%.

And the cell viability (SEM cells [3]; [13])?
The cell viability was 132%.

What about the cell viability (SEM cells [3]; [14]) of the same molecule?
The cell viability was 126%.

And the cell viability (SEM cells [3]; [15])?
The cell viability was 86.4%.

And the cell viability (SEM cells [3]; [16])?
Its cell viability is 10.4%.

And the cell viability (SEM cells [3]; [17])?
Its cell viability is 9.94%.

What about the “AUC of viability dose-response curve” value (NOMO1 [4]; HPLM + 10% dialyzed FBS) of the same molecule?
The value was 344.

And the “AUC of viability dose-response curve” value (NOMO1 [4]; RPMI 5 mM glucose + 10% FBS)?
Its value is 399.

And the “AUC of viability dose-response curve” value (NOMO1 [4]; [29])?
The value was 406.

And the “AUC of viability dose-response curve” value (P12-Ichikawa [6]; HPLM + 10% dialyzed FBS)?
Its value is 335.

What about the “AUC of viability dose-response curve” value (P12-Ichikawa [6]; RPMI 5 mM glucose + 10% FBS) of the same molecule?
The value was 396.

And the “AUC of viability dose-response curve” value (P12-Ichikawa [6]; [29])?
The value was 390.

What about the “AUC of viability dose-response curve” value (SEM cells [5]; HPLM + 10% dialyzed FBS) of the same molecule?
Its value is 396.

And the “AUC of viability dose-response curve” value (SEM cells [5]; RPMI 5 mM glucose + 10% FBS)?
The value was 363.

And the “AUC of viability dose-response curve” value (SEM cells [5]; [29])?
The value was 379.

Which results are given for `Nc1nc(F)nc2c1ncn2[C@@H]1O[C@H](CO)[C@@H](O)[C@H]1O`?
cell viability (SEM cells [3]; [18]): 114%; cell viability (SEM cells [3]; [19]): 119%; cell viability (SEM cells [3]; [20]): 125%; cell viability (SEM cells [3]; [21]): 141%; cell viability (SEM cells [3]; [22]): 115%; cell viability (SEM cells [3]; [23]): 13.2%; cell viability (SEM cells [3]; [24]): 10.9%; cell viability (SEM cells [3]; [25]): 7.49%; cell viability (SEM cells [3]; [26]): 6.64%; cell viability (SEM cells [3]; [27]): 6.09%; cell viability (SEM cells [3]; [28]): 6.22%; AUC of viability dose-response curve (NOMO1 [4]; HPLM + 10% dialyzed FBS): 283; AUC of viability dose-response curve (NOMO1 [4]; RPMI 5 mM glucose + 10% FBS): 291; AUC of viability dose-response curve (NOMO1 [4]; [29]): 279; AUC of viability dose-response curve (P12-Ichikawa [6]; HPLM + 10% dialyzed FBS): 293; AUC of viability dose-response curve (P12-Ichikawa [6]; RPMI 5 mM glucose + 10% FBS): 293; AUC of viability dose-response curve (P12-Ichikawa [6]; [29]): 282; AUC of viability dose-response curve (SEM cells [5]; HPLM + 10% dialyzed FBS): 228; AUC of viability dose-response curve (SEM cells [5]; RPMI 5 mM glucose + 10% FBS): 229; AUC of viability dose-response curve (SEM cells [5]; [29]): 217

For `CC(=O)Nc1sc2c(c1-c1nc3ccccc3s1)CNC2`, which “AUC of viability dose-response curve” value (NOMO1 [4]; HPLM + 10% dialyzed FBS) is on record?
Its value is 386.

And the “AUC of viability dose-response curve” value (NOMO1 [4]; RPMI 5 mM glucose + 10% FBS)?
Its value is 462.

And the “AUC of viability dose-response curve” value (NOMO1 [4]; [29])?
Its value is 384.

What about the “AUC of viability dose-response curve” value (P12-Ichikawa [6]; HPLM + 10% dialyzed FBS) of the same molecule?
Its value is 463.

What about the “AUC of viability dose-response curve” value (P12-Ichikawa [6]; RPMI 5 mM glucose + 10% FBS) of the same molecule?
Its value is 452.

What about the “AUC of viability dose-response curve” value (P12-Ichikawa [6]; [29]) of the same molecule?
The value was 453.

And the “AUC of viability dose-response curve” value (SEM cells [5]; HPLM + 10% dialyzed FBS)?
The value was 437.

And the “AUC of viability dose-response curve” value (SEM cells [5]; RPMI 5 mM glucose + 10% FBS)?
The value was 443.

What about the “AUC of viability dose-response curve” value (SEM cells [5]; [29]) of the same molecule?
Its value is 439.

From the supplement of paper PMC11451515
